Reference: ChEMBL document CHEMBL1201862, “PubChem BioAssay data set” (2004)
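Step 1: Grow cells in 96-well plates. Step 2: Expose to compound for 48 hours at 5 concentrations. Step 3: Interpolate endpoints linearly; if unreached, use highest concentration. GI50 marks 50% less growth.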 Activity calls are given as the source filed them. No stated cut-off is given here; in the data, active = GI50 up to about 1.1 µM and inactive = higher.

Legend:
Experiment in all cases: DTP human tumour cell line panel, 48 h
SK-MEL-2 = test system: SK-MEL-2
U-251 = test system: U-251
TK-10 = test system: TK-10
SN12C = test system: SN12C
KM12 = test system: KM12
OVCAR-3 = test system: OVCAR-3
MCF7 = test system: MCF7
SNB-19 = test system: SNB-19
MDA-MB-231 = test system: MDA-MB-231
NCI-H460 = test system: NCI-H460
A498 = test system: A498
HOP-62 = test system: HOP-62
NCI-H23 = test system: NCI-H23
SF-295 = test system: SF-295
IGROV-1 = test system: IGROV-1
SK-MEL-5 = test system: SK-MEL-5
OVCAR-8 = test system: OVCAR-8
A549 = test system: A549
OVCAR-4 = test system: OVCAR-4
COLO 205 = test system: COLO 205

Measured: GI50

CC1CN=C(NCc2ccccc2)S1 (centres undefined)
inactive: SK-MEL-2 > 100 µM | U-251 > 100 µM | TK-10 > 100 µM | SN12C > 100 µM | KM12 > 100 µM | OVCAR-3 > 100 µM | MCF7 > 100 µM | SNB-19 > 100 µM | MDA-MB-231 > 100 µM | NCI-H460 > 100 µM | A498 > 100 µM | HOP-62 > 100 µM | NCI-H23 > 100 µM

[O-][S+](Nc1ccccc1)c1ccc(-c2ccccc2)cc1 (centres undefined)
inactive: U-251 > 100 µM | SF-295 55.8 µM | TK-10 > 100 µM | SN12C > 100 µM | IGROV-1 > 100 µM | KM12 58.6 µM | SK-MEL-5 > 100 µM | OVCAR-3 > 100 µM | MCF7 > 100 µM | OVCAR-8 45.8 µM | A549 > 100 µM | SNB-19 > 100 µM | OVCAR-4 38.1 µM | MDA-MB-231 > 100 µM | NCI-H460 > 100 µM | COLO 205 72.3 µM | HOP-62 > 100 µM | NCI-H23 > 100 µM

O=C(c1cccs1)N(C(=O)N1CCCCC1)c1ccccc1
inactive: SK-MEL-2 > 100 µM | U-251 > 100 µM | SF-295 > 100 µM | TK-10 > 100 µM | SN12C > 100 µM | IGROV-1 > 100 µM | KM12 > 100 µM | SK-MEL-5 > 100 µM | OVCAR-3 > 100 µM | MCF7 > 100 µM | OVCAR-8 > 100 µM | SNB-19 > 100 µM | MDA-MB-231 > 100 µM | COLO 205 > 100 µM | A498 > 100 µM | NCI-H23 > 100 µM

CCC/C=C/C=C/C1CC(O)C(O)C(=O)C1CO (centres undefined)
inactive: SK-MEL-2 > 100 µM | U-251 > 100 µM | SF-295 > 100 µM | TK-10 > 100 µM | SN12C > 100 µM | IGROV-1 > 100 µM | KM12 > 100 µM | SK-MEL-5 > 100 µM | OVCAR-3 21.6 µM | MCF7 > 100 µM | OVCAR-8 > 100 µM | A549 > 100 µM | SNB-19 > 100 µM | OVCAR-4 > 100 µM | MDA-MB-231 > 100 µM | NCI-H460 > 100 µM | COLO 205 > 100 µM | NCI-H23 > 100 µM

O=C(CC(=O)N(C(=O)c1ccccc1)c1ccc(Cl)cc1)N/N=C\c1cc(/N=N/c2ccccc2Cl)ccc1O
inactive: U-251 39 µM | SF-295 29.9 µM | TK-10 27.2 µM | SN12C 42.5 µM | IGROV-1 > 100 µM | KM12 26.3 µM | OVCAR-3 48 µM | MCF7 > 100 µM | OVCAR-8 > 100 µM | A549 > 100 µM | SNB-19 18.2 µM | MDA-MB-231 29.2 µM | NCI-H460 > 100 µM | COLO 205 > 100 µM | A498 31.3 µM | HOP-62 39.5 µM | NCI-H23 > 100 µM

CC(=O)N1N=C(c2ccccc2Nc2ccccc2C2=NN(C(C)=O)C(c3ccccc3)O2)OC1c1ccccc1 (centres undefined)
inactive: SK-MEL-2 73.3 µM | U-251 63.5 µM | SF-295 32.8 µM | TK-10 > 100 µM | SN12C > 100 µM | IGROV-1 > 100 µM | SK-MEL-5 51.2 µM | OVCAR-3 > 100 µM | MCF7 11.5 µM | OVCAR-8 71.6 µM | A549 17.4 µM | SNB-19 > 100 µM | OVCAR-4 29.8 µM | MDA-MB-231 > 100 µM | NCI-H460 26.7 µM | COLO 205 18.6 µM | HOP-62 > 100 µM | NCI-H23 60.7 µM

C#CCOC(=O)C(N)C(C)O (centres undefined)
inactive: SK-MEL-2 > 100 µM | U-251 > 100 µM | SF-295 > 100 µM | TK-10 > 100 µM | SN12C > 100 µM | IGROV-1 > 100 µM | KM12 > 100 µM | SK-MEL-5 > 100 µM | OVCAR-3 > 100 µM | MCF7 > 100 µM | OVCAR-8 > 100 µM | A549 > 100 µM | MDA-MB-231 > 100 µM | COLO 205 > 100 µM | A498 > 100 µM | HOP-62 > 100 µM | NCI-H23 > 100 µM

COC(=O)C12C(=O)CC3CCC1C32C(=O)OC (centres undefined)
inactive: SK-MEL-2 > 100 µM | U-251 > 100 µM | SF-295 > 100 µM | TK-10 > 100 µM | SN12C > 100 µM | IGROV-1 > 100 µM | KM12 > 100 µM | SK-MEL-5 > 100 µM | OVCAR-3 > 100 µM | MCF7 > 100 µM | OVCAR-8 > 100 µM | A549 > 100 µM | SNB-19 > 100 µM | OVCAR-4 > 100 µM | MDA-MB-231 > 100 µM | NCI-H460 > 100 µM | COLO 205 > 100 µM | HOP-62 > 100 µM | NCI-H23 > 100 µM

COc1ccc(S(=O)(=O)n2c3c(c4ccccc42)[C@@H]2[C@@H](CCCN2C(=O)C[S+]([O-])c2ccc(C)cc2)[C@H](Cl)C3)cc1 (some centres undefined)
inactive: SK-MEL-2 > 100 µM | U-251 > 100 µM | SF-295 > 100 µM | TK-10 32 µM | SN12C > 100 µM | IGROV-1 1.51 µM | KM12 > 100 µM | SK-MEL-5 > 100 µM | OVCAR-3 > 100 µM | MCF7 > 100 µM | OVCAR-8 > 100 µM | A549 > 100 µM | SNB-19 > 100 µM | MDA-MB-231 > 100 µM | NCI-H460 > 100 µM | COLO 205 > 100 µM | A498 > 100 µM | HOP-62 > 100 µM | NCI-H23 > 100 µM

NC(CCC(=O)O)(CCC(=O)O)CCC(=O)O
inactive: SK-MEL-2 > 100 µM | U-251 > 100 µM | SF-295 > 100 µM | TK-10 > 100 µM | SN12C > 100 µM | IGROV-1 > 100 µM | KM12 > 100 µM | SK-MEL-5 > 100 µM | MCF7 > 100 µM | OVCAR-8 > 100 µM | A549 > 100 µM | SNB-19 > 100 µM | MDA-MB-231 > 100 µM | NCI-H460 > 100 µM | COLO 205 > 100 µM | NCI-H23 > 100 µM

CC1(C)CC(=O)C2=C(C1)NC(=S)C(C#N)C2c1ccccc1 (centres undefined)
inactive: SK-MEL-2 > 100 µM | U-251 > 100 µM | SF-295 > 100 µM | TK-10 > 100 µM | SN12C > 100 µM | IGROV-1 > 100 µM | SK-MEL-5 > 100 µM | OVCAR-3 > 100 µM | MCF7 > 100 µM | OVCAR-8 > 100 µM | A549 > 100 µM | SNB-19 > 100 µM | OVCAR-4 > 100 µM | MDA-MB-231 > 100 µM | NCI-H460 > 100 µM | COLO 205 > 100 µM | HOP-62 > 100 µM | NCI-H23 > 100 µM
